According to patent US5965743A, “N-substituted imidazol derivative” (Nippon Soda Co., Ltd., priority 1994, dated 1999):
Where two headings read alike, the source gives them in different places.

What was measured:
cholesterol biosynthesis = assay: In vivo inhibition test on cholesterol biosynthesis in mice; set-up: species or system mouse (Crj:ICR-strain); conditions: n = 5, 30 mg/kg oral; for 14C-Cholesterol in serum: control group 3783 (for 1-71), 5694 (for 2-64, 2-71, 2-72); for Inhibition Rate on cholesterol biosynthesis: vs control group
Method: In Vivo Inhibition Test on Cholesterol Biosynthesis
For this test, Crj:ICR-strain male mice aged 7-9 weeks were provided. The mice were fed with a diet containing 2% cholestyramine for 7 to 10 days under reversed lighting condition, namely the mice were placed in dark condition during 7:00 AM to 7:00 PM. Each of the test compounds was dissolved or suspended in either distillated water or 1% aqueous solution of poly(oxyethylene) curing castor oil and was orally administrated to the mice at a dose of 30 mg/kg at 10:30 AM, respectively. After 1 hour following to the administration of the test compound, the mice were intraperitoneally administrated with ^14 C-sodium acetate at a dose of 5 μCi/0.5 ml/mouse, respectively. After 2 hours, blood sampling was performed for each mouse from the abdominal aorta under anesthesia with ether and the blood sampled were placed into plastic test tubes being placed with blood separating agent beforehand to separate the serum, respectively. Each 0.5 ml of the serum was then added with 1 ml of 20% ethanol solution of potassium hydroxide and heated for 3 hours at 75° C. After extracting the unsponified substance with n-hexane, the serum was condensed to the dry hard state and dissolved in small amount of a mixed solution of chloroform and methanol (mixing ratio; 1:2). The resultant chloroform-methanol solution was then spotted on pre-coated silica gel TLC and developed with a mixed solution of benzene and ethyl acetate (mixing ratio; 9:1). The cholesterol spot was then taken out and the radio-activity thereof was measured by using a liquid scintillation counter. Based on the radio-activity measured, the inhibition rate on cholesterol biosynthesis were determined respectively for the compounds of the present invention.

[1] = system: Triton WR-1339-Induced Hyperlipemia Mice; assay: Effect on serum lipid in Triton WR-1339-induced hyperlipemia mice; type: in vivo, mouse (Crj:ICR-strain); conditions: Mus musculus, po (3 x 33.3 mg/kg), average of 10 animals, 24 hours
Method: For this test, Crj:ICR-strain male mice aged 7-9 weeks were provided. […] After 24 hours, blood sampling was performed for each mouse from the abdominal aorta under anesthesia with ether, and the collected blood were placed into plastic test tubes being placed with a blood separating agent beforehand, then after 30 min. or 1 hour, the blood sampled was centrifuged at 10,000 rpm to obtain the serum. Total cholesterol value, HDL cholesterol value and total triglyceride value in the serum were respectively measured by using the measuring kits and automatic biochemical analyser.

[2] = system: biosynthesis of cholesterol; assay: Inhibitory effect on biosynthesis of cholesterol in cell-free biosystem; type: biochemical, rat (SD-strain); conditions: cell-free rat liver enzyme system, 90 min, 37° C., pH 7.4; read-out: 50% Inhibitory Concentration (IC50), cholesterol biosynthesis
Method: Inhibitory Effect on Biosynthesis of Cholesterol in Cell-free Biosystem
(1) Preparation of Enzyme Reaction System
The preparation of the enzymatic system for the biosynthesis of cholesterol in rats was carried out according to the method described in Biochimica et Biophysica Acta, Vol.486, pp 70-81, 1977.
More particularly, SD-strain female rats weighing from […] were fed for 7 to 10 days with a diet containing 2% cholestyramine to enhance their biosynthetic activity of cholesterol. After killed the rats by means of depletion of blood in midnight, the livers thereof were removed and homogenized with a double volume of 0.1 M potassium phosphate buffer solution (pH 7.4) containing 15 mM nicotine amide and 2 mM magnesium chloride by using a loose fitting-type teflon homogenizer. The supernatant obtained by centrifuging the homogenate at 12,000×g for 30 min. was further centrifuged at 105,000×g for 90 min., thereby separating it to the microsome fraction and the supernatant fraction. The supernatant obtained were kept as the fraction resulting in the precipitation in 40-80% ammonium sulfate (hereinafter referred to as "soluble fraction"). Each of the soluble fraction and the microsome fraction were independently adjusted with 0.1 M potassium phosphate buffer solution (pH 7.4) to the volumes of 1 ml/g of liver and 1 ml/3 g of liver, respectively, and were kept and used in the subsequent tests as an enzyme solution for the mixing ratio of 16:1.
(2) Method for Measuring Cholesterol Biosynthesis Activity
Cholesterol biosynthesis activity was measured according to the method described in Biochimica Biophysica Acta, Vol.486, pp 70-81, 1977. 2 μl dimethylsulfoxide solution of the test compound were added to a solution composed of 50 μl of the enzyme solution prepared in (1) described above, 0.1 M potassium phosphate buffer solution (pH 7.4), 1 mM ATP, 5 mM glucose-1-phosphate, 6 mM glutathione, 6 mM magnesium chloride, 0.04 mM coenzyme A, 0.25 mM NAD, 0.25 mM NADP and 1 mM 2-^14 C-sodium acetate (111 MBq./mmol), and the resultant solution was adjusted to the whole volume of 0.2 ml and then allowed to a reaction for 90 min. at 37° C. while shaking. The reaction was then stopped by adding 1 ml of 15% ethanol solution of potassium hydroxide, and the solution was then heated for 1 hour at 75° C. After extracted unsaponificated products with hexane from the solution, the solution was then condensed and dried to the hard state and subsequently dissolved in small volume of a mixture of chloroform and methanol (mixing ratio; 1:2). The resultant chloroform-methanol solution was spotted on a pre-coated silica gel TLC plate, then developed with a developer composed of benzene and ethyl acetate (mixing ratio; 9:1). The cholesterol spot was then taken out from the plate, and the radient activity of the spot was measured by using a liquid scintillation counter. Based on the radio-activity measured, mthe 50% inhibitory concentration (IC50) of the compounds of the present invention were determined.

[3] = read-out: % Change of Serum Lipid to Control Group: HDL Cholesterole
[4] = read-out: % Change of Serum Lipid to Control Group: Total Cholesterole
[5] = read-out: % Change of Serum Lipid to Control Group: Total glyceride

Row | SMILES | 14C-Cholesterol in serum (cholesterol biosynthesis) | Inhibition Rate on cholesterol biosynthesis (cholesterol biosynthesis) | change in vivo at 100 mg/kg [1, 3] | change in vivo at 100 mg/kg [1, 4] | change in vivo at 100 mg/kg [1, 5] | IC50 [2]
1 | O=S(=O)(CCCOc1ccc(-n2ccnc2)cc1)c1ccccc1 [Compound 1-71] | 575 dpm/1 ml Serum | 85% | 82% | -23% | -20% | 2.4 µM
2 | c1ccc(SCCCOc2ccc(Cn3ccnc3)cc2)cc1 [Compound 2-64, 1-[4-(3-phenylthiopropyloxy)benzyl]imidazole] | 460 dpm/1 ml Serum | 92% |  |  |  | 6 µM
3 | O=S(=O)(CCCOc1ccc(Cn2ccnc2)cc1)c1ccccc1 [Compound 2-71] | 73 dpm/1 ml Serum | 99% | 60% | -30% | -21% | 
4 | c1ccc(OCCCOc2ccc(Cn3ccnc3)cc2)cc1 [Compound 2-72] | 3980 dpm/1 ml Serum | 30% | 28% | -21% | -29% | 6 µM
